Where a name gives a salt, the structure may show the parent alone. Read-outs that look alike come from different tables or passages of the source.
How the values were obtained:
rat-β3-AR [1] = target: T1, rat-β3-AR (Rattus norvegicus, UniProt P26255); assay: cAMP accumulation in CHO cells expressing rat β3-AR; type: cell-based; details: for Emax: read-out: Emax, maximal cAMP accumulation
T1 construct: expressed in transfected cells; host or cells: CHO cells
Experimental: (§1) cAMP Radioimmunoassay (CAMP-RIA Assay). […] The precipitated protein was dissolved in 0.1N NaOH.

Human β3-AR [2] = target: T2, Human β3-AR (Homo sapiens, UniProt P13945); assay: cAMP radioimmunoassay (cAMP-RIA), CHO cells expressing human β3-AR; type: cell-based; set-up: expressed in transfected cells; details: for I.A., Human β3-AR, cAMP-RIA assay: percentage of maximal response of R-(−)-isoproterenol (100%)
Experimental: as §1

Atypical-β/β3-AR = Atypical-β/β3-AR (Rattus norvegicus, UniProt P26255); assay: Relaxation of carbachol-precontracted rat esophageal smooth muscle; details: for I.A. (intrinsic activity), Esophageal Smooth Muscle (Atypical-β/β3-AR): maximal response relative to maximal response of (−)-isoproterenol
Experimental: (§2) Male Sprague Dawley rats (Harlan Industries, Cumberland, Ind.) housed under a 12 hour light/dark cycle and fed Purina Rodent Laboratory Chow (Ralston Purina., St. Louis, Mo.) and water ad libitum, were used for the studies. […] All tissues were suspended and equilibrated in modified Kreb's buffer in water-jacketed baths at 37° C. Resting tensions of 1 g for right atria, trachea and aorta, and of 200 mg for esophageal smooth muscle were used. All tissue responses were measured on a Grass Polygraph Model 7C with a Grass FT-03C isometric force-displacement transducer.
(§3) Carbachol-precontracted tissues were included as controls through the duration of relaxation studies.

β2-AR = β2-AR (Rattus norvegicus, UniProt P10608); assay: Relaxation of carbachol-precontracted isolated rat tracheal strips; details: for I.A. (intrinsic activity), Trachea: maximal response relative to maximal response of (−)-isoproterenol
Experimental: as §2, §3

Human β2-AR = Human β2-AR (Homo sapiens, UniProt P07550); assay: CRE-luciferase reporter gene (CRE-LUC) assay, CHO cells expressing human β2-AR
Experimental: (§4) cAMP response element (CRE)-luciferase(LUC) reporter gene (CRE-LUC) assay. […] The transfected CHO cells were seeded at a density of 40,000/well in 96 well microtiter plates (Culturplate, Packard) and allowed to grow for 20 hours. After 20 hours, the cells were treated with varying drug concentrations (10^−11 to 10^−4 M) for 4 hours. Following drug exposures, the cells were lysed and luciferase activity measured using the LucLite® assay kit (Packard). Changes in light production were measured by a Topcount® luminometer (Packard).

Human β3-AR [3] = target: T2, Human β3-AR; assay: CRE-luciferase reporter gene (CRE-LUC) assay, CHO cells expressing human β3-AR
Experimental: as §4

Human β1-AR [4] = target: T3, Human β1-AR (Homo sapiens, UniProt P08588); assay: CRE-luciferase reporter gene (CRE-LUC) assay, CHO cells expressing human β1-AR
Experimental: as §4

human β1 Adrenoreceptor = human β1 Adrenoreceptor (Homo sapiens, UniProt P08588); assay: Radioligand competition binding, human β1 adrenoreceptor expressed in CHO cells ([125I]ICYP)
Experimental: Competitive and comparative binding experiments on β1 Adrenoreceptors, β2 Adrenoreceptors and β3-Adrenoreceptors expressed in CHO cells were performed as described previously. […] CHO cells grown to a confluence in 150-mL flasks were detached into Ham's F-12 medium after treatment with 0.05% trypsin-0.53 mM EDTA solution. The cells were then pelleted and washed three times with Tris-EDTA buffer (50 mM Tris-HCl, 150 mM NaCl, 20 mM EDTA, pH 7.4) and resuspended in the same buffer.
Competition binding experiments were performed in duplicates using these whole cells. […] The final volume in each tube was 0.25 mL. Nonspecific binding (5-30%) was determined in the presence of 1 μM (±)-propranolol. Incubations were carried out for 60 min at 37° C. Binding reactions were terminated by rapid filtration through Whatman GF/B glass fiber filters on a Brandel model 12-R tissue harvester. Filters were washed twice with ice cold Tris-EDTA buffer to remove free ICYP. The filters were dried under tissue harvester vacuum and radioactivity was measured by gamma scintillation spectrometry (Beckman model 8000 gamma counter, Palo Alto, Calif.). Specific binding to β Adrenoreceptor sites in these cells varied from 94 to 100%
Inhibitory concentration-50 (IC50) value of each competing drug was determined graphically from individual plots of percent radioligand bound versus log drug concentration on O-adrenoceptors and human platelets. […] Dissociation constants (Ki) for each competing drug were calculated using the equation: [formula] and the data expressed as pKi (i.e., −log Ki) values.

human β2 Adrenoreceptor = target: T4, human β2 Adrenoreceptor (Homo sapiens, UniProt P07550); assay: Radioligand competition binding, human β2 adrenoreceptor expressed in CHO cells ([125I]ICYP); details: for Ki: CHO cells (Table 8), read-out: hβ2 Binding ki; for pKi ± SEM, Human β2-AR: CHO cells, [125I]ICYP, N = 3-9 (Table 5)
T4 construct: expressed in transfected cells

Human β3 Adrenoreceptors = target: T5, Human β3 Adrenoreceptors (Homo sapiens, UniProt P13945); assay: hβ3 cAMP functional activity in CHO cells expressing human β3 adrenoreceptors (Table 8); type: cell-based; details: for EC50: read-out: hβ3 cAMP EC50(nM) +/−SEM
T5 construct: expressed in transfected cells

Human β1-AR [5] = target: T3, Human β1-AR; assay: cAMP radioimmunoassay (cAMP-RIA), CHO cells expressing human β1-AR; type: cell-based; set-up: expressed in transfected cells; details: percentage of maximal response of R-(−)-isoproterenol (100%)
Experimental: as §1

human β3-Adrenoreceptor = target: T6, human β3-Adrenoreceptor (Homo sapiens, UniProt P13945); assay: Radioligand competition binding, human β3 adrenoreceptor expressed in CHO cells ([125I]ICYP); details: N = 3-9 (Table 5)
T6 construct: expressed in transfected cells

[6] = target: T7, Thromboxane A2/Prostaglandin H2 (TP) receptor (Homo sapiens, UniProt P21731); assay: Radioligand competition binding, TP receptor sites in human platelets ([3H]SQ 29,548); details: [3H]SQ 29,548 as radioligand; platelets; N = 4-9
T7 construct: endogenous in cells; host or cells: human platelets (from platelet rich plasma)
T7 sequence (P21731 1-343): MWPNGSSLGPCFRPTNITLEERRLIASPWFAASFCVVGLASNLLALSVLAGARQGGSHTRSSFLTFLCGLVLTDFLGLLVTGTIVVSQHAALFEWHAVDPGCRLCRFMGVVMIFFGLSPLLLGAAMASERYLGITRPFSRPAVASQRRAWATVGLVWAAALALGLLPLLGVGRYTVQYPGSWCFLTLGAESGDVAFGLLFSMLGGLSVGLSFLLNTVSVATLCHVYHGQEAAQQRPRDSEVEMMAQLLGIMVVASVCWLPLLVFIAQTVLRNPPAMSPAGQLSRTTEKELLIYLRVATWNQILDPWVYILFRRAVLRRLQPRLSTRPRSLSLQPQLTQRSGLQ
Experimental: For binding experiments, human platelet rich plasma (PRP) was centrifuged and re-suspended in 50 mM Tris-saline buffer, pH 7.4. […] Filters were placed in plastic scintillation vials containing 10 mL of an emulsion-type scintillation mixture and radioactivity measured by liquid scintillation spectrometry.

β1-AR = β1-AR (Rattus norvegicus, UniProt P18090); assay: Chronotropic responses of spontaneously beating isolated rat right atria
Experimental: as §2
The tissue was again washed 6-7 times with 10 ml of buffer, followed by repeated washes every 10-15 min.

rat-β3-AR [7] = target: T1, rat-β3-AR; assay: Binding in CHO cells expressing rat β3-AR; details: mean ± SEM (n in parentheses), read-out: pKi (−log Ki) for binding, rat-β3-AR (converted)
[8] = CHO cells, N.A. = Not active at 100 μM, N = 4-12, read-out: pKact ± SEM, Human β3-AR, cAMP-RIA assay (converted)
[9] = percentage of maximal response of R-(−)-isoproterenol (Table 6 B)

T2 sequence (P13945 whole entry): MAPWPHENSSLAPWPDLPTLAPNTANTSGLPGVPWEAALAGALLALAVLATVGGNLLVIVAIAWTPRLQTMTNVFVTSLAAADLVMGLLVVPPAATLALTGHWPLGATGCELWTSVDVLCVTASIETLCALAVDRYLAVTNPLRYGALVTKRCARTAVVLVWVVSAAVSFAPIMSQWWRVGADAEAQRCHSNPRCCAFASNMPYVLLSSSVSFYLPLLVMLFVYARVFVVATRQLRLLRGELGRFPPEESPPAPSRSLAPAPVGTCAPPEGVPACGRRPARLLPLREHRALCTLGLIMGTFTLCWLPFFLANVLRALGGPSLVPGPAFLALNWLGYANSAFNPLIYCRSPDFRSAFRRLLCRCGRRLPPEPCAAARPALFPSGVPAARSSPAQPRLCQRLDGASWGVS
T5 sequence (P13945 whole entry): as above
Sequence of Atypical-β/β3-AR (P26255 whole entry): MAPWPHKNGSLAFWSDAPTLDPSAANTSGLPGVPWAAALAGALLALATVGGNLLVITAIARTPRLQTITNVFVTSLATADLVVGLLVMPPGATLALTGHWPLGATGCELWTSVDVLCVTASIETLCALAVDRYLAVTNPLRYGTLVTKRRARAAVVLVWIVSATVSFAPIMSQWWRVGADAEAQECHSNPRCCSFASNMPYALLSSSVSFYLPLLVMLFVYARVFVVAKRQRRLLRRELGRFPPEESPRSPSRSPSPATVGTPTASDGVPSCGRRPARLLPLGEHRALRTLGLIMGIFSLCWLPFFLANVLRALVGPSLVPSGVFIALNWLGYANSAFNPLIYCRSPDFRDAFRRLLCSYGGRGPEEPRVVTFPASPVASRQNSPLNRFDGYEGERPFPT
T1 sequence (P26255 whole entry): as above
Sequence of β2-AR (P10608 whole entry): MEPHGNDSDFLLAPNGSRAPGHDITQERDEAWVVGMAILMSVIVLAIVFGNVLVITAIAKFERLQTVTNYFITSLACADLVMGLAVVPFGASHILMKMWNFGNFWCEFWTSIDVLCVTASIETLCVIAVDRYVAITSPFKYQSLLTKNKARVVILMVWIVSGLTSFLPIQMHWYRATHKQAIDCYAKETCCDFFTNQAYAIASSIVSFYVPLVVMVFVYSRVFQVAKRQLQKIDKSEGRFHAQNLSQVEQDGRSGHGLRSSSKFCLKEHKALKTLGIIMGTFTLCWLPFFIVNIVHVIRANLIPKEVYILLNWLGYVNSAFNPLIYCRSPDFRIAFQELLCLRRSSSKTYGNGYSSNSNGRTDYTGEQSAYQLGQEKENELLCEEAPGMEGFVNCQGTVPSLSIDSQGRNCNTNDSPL
T4 sequence (P07550 whole entry): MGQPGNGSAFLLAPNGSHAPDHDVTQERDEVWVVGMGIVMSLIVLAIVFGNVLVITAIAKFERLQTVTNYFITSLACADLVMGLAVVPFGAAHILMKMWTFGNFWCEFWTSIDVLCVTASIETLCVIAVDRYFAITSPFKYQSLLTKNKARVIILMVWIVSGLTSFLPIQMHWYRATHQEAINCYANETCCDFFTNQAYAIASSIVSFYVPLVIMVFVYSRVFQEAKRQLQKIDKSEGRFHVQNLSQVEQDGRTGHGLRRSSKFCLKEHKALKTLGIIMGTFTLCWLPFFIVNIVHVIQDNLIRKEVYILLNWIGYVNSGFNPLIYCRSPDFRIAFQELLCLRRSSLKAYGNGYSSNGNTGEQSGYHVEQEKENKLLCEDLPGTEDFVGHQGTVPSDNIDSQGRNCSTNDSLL
T3 sequence (P08588 whole entry): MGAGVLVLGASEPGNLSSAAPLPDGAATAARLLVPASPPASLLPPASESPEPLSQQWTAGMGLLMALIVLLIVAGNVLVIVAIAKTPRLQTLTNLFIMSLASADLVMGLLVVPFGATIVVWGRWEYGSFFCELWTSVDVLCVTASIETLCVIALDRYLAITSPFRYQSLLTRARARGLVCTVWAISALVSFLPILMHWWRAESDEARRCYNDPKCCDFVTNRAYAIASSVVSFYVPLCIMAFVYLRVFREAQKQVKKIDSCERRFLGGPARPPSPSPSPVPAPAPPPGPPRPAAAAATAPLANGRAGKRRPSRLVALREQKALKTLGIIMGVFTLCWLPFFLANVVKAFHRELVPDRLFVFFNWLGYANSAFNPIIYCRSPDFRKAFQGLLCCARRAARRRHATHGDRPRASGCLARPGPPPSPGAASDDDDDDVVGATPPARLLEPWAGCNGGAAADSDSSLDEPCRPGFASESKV
Sequence of human β1 Adrenoreceptor (P08588 whole entry): as above
T6 sequence (P13945 whole entry): as the sequence (P13945 whole entry) above
Sequence of β1-AR (P18090 whole entry): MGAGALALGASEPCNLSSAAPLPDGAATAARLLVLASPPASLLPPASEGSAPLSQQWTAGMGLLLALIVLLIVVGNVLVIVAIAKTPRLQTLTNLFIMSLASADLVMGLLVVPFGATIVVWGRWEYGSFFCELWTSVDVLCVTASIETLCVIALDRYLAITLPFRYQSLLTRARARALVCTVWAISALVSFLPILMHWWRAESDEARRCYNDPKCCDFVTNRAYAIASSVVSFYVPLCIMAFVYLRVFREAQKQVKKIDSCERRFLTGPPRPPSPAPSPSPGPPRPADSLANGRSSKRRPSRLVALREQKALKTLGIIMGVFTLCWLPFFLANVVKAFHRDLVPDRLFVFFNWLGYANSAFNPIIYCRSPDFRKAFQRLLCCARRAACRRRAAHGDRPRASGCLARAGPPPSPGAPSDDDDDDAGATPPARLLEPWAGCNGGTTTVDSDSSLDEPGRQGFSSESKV
Sequence of Human β2-AR (P07550 whole entry): as the sequence (P07550 whole entry) above

COc1cc2c(cc1OC)C(Cc1cc(I)c(NC(C)=O)c(I)c1)NCC2 (stereo not shown) (as salt: hydrochloride) [6,7-Dimethoxy-acetamidoDITMQ, 1-(4-Acetamido-3,5-diiodobenzyl)-6,7-dimethoxy-1,2,3,4-tetrahydroisoquinoline Hydrochloride]
melting point: 196 to 200 °C (dec.)

CC(C)NC[C@H](O)c1ccc(O)c(O)c1 (single isomer, unassigned) [(−)Isoproterenol, isoproterenol, reference compound]
Emax (rat-β3-AR [1]; CHO): 100% | I.A., Human β3-AR, cAMP-RIA assay (Human β3-AR [2]): 100% | I.A. (intrinsic activity), Esophageal Smooth Muscle (Atypical-β/β3-AR) (Atypical-β/β3-AR): 1.00 | I.A. (intrinsic activity), Trachea (β2-AR): 1.00

COc1c(I)cc(CC2NCCc3cc(O)ccc32)cc1I (stereo not shown) [6-Monophenolic TMQ analog (A-4)]
EC50 (Human β2-AR): 229 nM | EC50 (Human β3-AR [3]): 35.5 nM | EC50 (Human β1-AR [4]): 1950 nM

COc1cc(CC2NCCc3nc(N)sc32)cc(OC)c1OC (stereo not shown)
Ki (human β1 Adrenoreceptor): > 3000 nM | Ki (human β2 Adrenoreceptor): > 3000 nM | EC50 (Human β3 Adrenoreceptors): > 3160 nM

COc1c(I)cc(CC2NCCc3nc(NC(C)=O)sc32)cc1I.O=C(O)/C=C\C(=O)O (stereo not shown) [Compound 10]
I.A. ± SEM, Human β1-AR, cAMP-RIA assay (Human β1-AR [5]): <10% | I.A., Human β3-AR, cAMP-RIA assay (Human β3-AR [2]): <10%

COc1cc(CC2NCCc3nc(N)sc32)cc(OC)c1OC.Cl.Cl (stereo not shown) [7 (B-29), 2-Amino-4-(3′,4′,5′-trimethoxyphenylmethyl)-4,5,6,7-tetrahydro-thiazolo[5,4-c]pyridine Dihydrochloride]
pKi ± SEM, Human β1-AR (human β1 Adrenoreceptor; CHO cells, [125I]ICYP, N = 3-9 (Table 5)): 5.21 ± 0.08 | pKi ± SEM, Human β2-AR (human β2 Adrenoreceptor): 6.21 ± 0.12 | pKi ± SEM, Human β3-AR (human β3-Adrenoreceptor): 4.17 ± 0.05 | I.A. ± SEM, Human β1-AR, cAMP-RIA assay (Human β1-AR [5]): <10% | EC50 (Human β3-AR [2]; [8]): 8710 nM | I.A., Human β3-AR, cAMP-RIA assay (Human β3-AR [2]): 54 ± 1%

Br.CC(=O)Nc1c(I)cc(CC2NCCc3cc(O)c(O)cc32)cc1I (stereo not shown) [Compound 15, 1-(4-Acetamido-3,5-diiodobenzyl)-6,7-dihydroxy-1,2,3,4-tetrahydroisoquinoline Hydrobromide]
pKi ± SEM, Human β2 Adrenoreceptor CHO (human β2 Adrenoreceptor; [125I]ICYP as radioligand, N = 4-9): 8.06 | pKi ± SEM, Human TP receptors [6]: 6.45 | EC50 (rat-β3-AR [1]; CHO cells, mean ± SEM (n in parentheses), read-out: pKact (−log EC50) for cAMP accumulation, rat-β3-AR (converted)): 0.457 nM | Emax (rat-β3-AR [1]; relative to that of (−)-isoproterenol, CHO cells expressing rat-β3-AR): 89.6 ± 6.93% | EC50 (β1-AR): 1.1 nM | I.A. (intrinsic activity), Right Atria (β-AR) (β1-AR; maximal response relative to maximal response of (−)-isoproterenol): 0.93 ± 0.04 | Ki (rat-β3-AR [7]): 52.5 nM | EC50 (Atypical-β/β3-AR): 2.09 nM | I.A. (intrinsic activity), Esophageal Smooth Muscle (Atypical-β/β3-AR) (Atypical-β/β3-AR): 0.99 ± 0.03 | EC50 (β2-AR): 0.603 nM | I.A. (intrinsic activity), Trachea (β2-AR): 0.84 ± 0.02

COc1cc(CC2NCCc3cc(O)c(O)cc32)cc(OC)c1OC (racemic) [Compound 1, trimetoquinol, reference compound]
I.A. ± SEM, Human β1-AR, cAMP-RIA assay (Human β1-AR [5]): 109 ± 10% | EC50 (Human β3-AR [2]): 2.51 nM

[N-]=[N+]=Nc1ccc(CC2NCCc3cc(O)c(O)cc32)cc1I (stereo not shown)
Ki (human β1 Adrenoreceptor): 14.2 nM | Ki (human β2 Adrenoreceptor): 24 nM | hβ3 cAMP % Iso +/−SEM (Human β3 Adrenoreceptors): 81 +/− 3 % Iso | EC50 (Human β3 Adrenoreceptors): 46 nM

COc1c(I)cc(CC2NCCc3nc(N)sc32)cc1I.Cl.Cl (stereo not shown) [9 (B-28), 2-Amino-4-(3′,5′-diiodo-4′-methoxyphenylmethyl)-4,5,6,7-tetrahydrothiazolo[5,4-c]pyridine Dihydrochloride]
pKi ± SEM, Human β2-AR (human β2 Adrenoreceptor): 6.37 ± 0.08 | pKi ± SEM, Human β3-AR (human β3-Adrenoreceptor): 5.83 ± 0.15 | I.A. ± SEM, Human β2-AR, CRE-LUC assay (Human β2-AR; [9]): <15% | EC50 (Human β3-AR [2]; [8]): 112 nM | I.A., Human β3-AR, cAMP-RIA assay (Human β3-AR [2]): 67 ± 3% | EC50 (Human β3-AR [3]): 195 nM | I.A., Human β3-AR, CRE-LUC assay (Human β3-AR [3]; [9]): 62 ± 3%

From patent US20050096347A1, “Beta3-Adrenoreceptor agonists, agonist compositions and methods of using” (Molecular Design International, Inc., priority 1997, published 2005)
